In patent US9593109B2, “Bicyclic agonists of GPR131 and uses thereof” (CYMABAY THERAPEUTICS, INC., priority 2011, dated 2017):

The compounds below were run against T1, human GPR131 (Homo sapiens, UniProt Q8TDU6) (assay: Stimulation of cAMP (agonism of GPR131), FRET cAMP assay). Conditions: 0.5 h; 1.1 μM compound; compared to maximal stimulatory activity of lithocholic acid (LCA) determined at 3.3 μM; stable cell line expressing human GPR131; 37° C. for 30 minutes; read-out: Percent Activity @ 1.1 μM (of 3.3 uM LCA) (%).
T1 construct: expressed in transfected cells
T1 sequence (Q8TDU6 1-330): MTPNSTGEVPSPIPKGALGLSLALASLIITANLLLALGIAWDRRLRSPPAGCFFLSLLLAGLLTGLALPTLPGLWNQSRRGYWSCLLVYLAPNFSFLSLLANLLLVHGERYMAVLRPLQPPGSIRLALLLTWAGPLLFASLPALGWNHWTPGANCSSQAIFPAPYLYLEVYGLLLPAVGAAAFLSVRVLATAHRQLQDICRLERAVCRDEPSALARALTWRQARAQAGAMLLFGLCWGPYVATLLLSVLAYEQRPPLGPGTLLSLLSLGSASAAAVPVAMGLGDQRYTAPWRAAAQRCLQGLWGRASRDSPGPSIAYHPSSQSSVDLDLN
Format: cell-based
Protocol: This assay was developed using a stable cell line expressing human GPR131.
To measure cAMP activity in response to GPR131 agonists, GPR131 cells suspended in DMEM/F12 medium with 1 mM IBMX were seeded in 384 well plates at 5000 cells per well. After incubating with test compounds at 37° C. for 30 minutes cAMP was measured using a fluorescene resonance energy transfer cAMP kit from Cis Bio (Bedford, Mass.) according to the manufacturer's instructions. Briefly, cells were lysed, and cAMP levels determined by competitive immunoassay using D2 labeled cAMP, and europium cryptate tagged anti cAMP antibody. Decreases in the FRET signal (fluorescence ratio (665 nm/620 […]) correspond to increases in intracellular cAMP levels.
Activities of test compounds in Table 1 below are expressed as percent activity at 1.1 μM compound compared to the maximal stimulatory activity of lithocholic acid (LCA) (determined at 3.3 μM LCA).
`Fc1ccc(-n2cnnc2-c2c(-c3cc(Cl)ccc3Cl)nc3ccccn23)cc1` [Compound 533, 2-(2,5-Dichlorophenyl)-3-(4-(4-fluorophenyl)-4H-1,2,4-triazol-3-yl)imidazo[1,2-a]pyridine] showed an activation at 1.1 µM of 100%. `COc1nnc(-c2c(-c3cc(Cl)ccc3Cl)nc3ccccn23)n1-c1ccc(Cl)cc1` [Compound 527, 3-(4-(4-Chlorophenyl)-5-methoxy-4H-1,2,4-triazol-3-yl)-2-(2,5-dichlorophenyl)imidazo[1,2-a]pyridine] gave an activation at 1.1 µM of 97.1%. Compound `S=c1[nH]nc(-c2c(-c3cc(Cl)ccc3Cl)nc3ccccn23)n1-c1ccc(Cl)cc1` [Compound 526, 4-(4-Chlorophenyl)-3-(2-(2,5-dichlorophenyl)imidazo[1,2-a]pyridin-3-yl)-1H-1,2,4-triazole-5(4H)-thione] has an activation at 1.1 µM of 98.9%. `Cn1cnc2cc(-n3cnnc3-c3c(-c4cc(Cl)ccc4Cl)nc4ccccn34)ccc21` [Compound 521, 5-(3-(2-(2,5-Dichlorophenyl)imidazo[1,2-a]pyridin-3-yl)-4H-1,2,4-triazol-4-yl)-1-methyl-1H-benzo[d]imidazole] was tested, and the activation at 1.1 µM was 81.6%. In the case of `FC(F)(F)c1ccc(-n2ccnc2-c2c(-c3cc(Cl)ccc3Cl)nc3cccnn23)cc1` [Compound 565, 2-(2,5-Dichlorophenyl)-3-(1-(4-(trifluoromethyl)phenyl)-1H-imidazol-2-yl)imidazo[1,2-b]pyridazine], the activation at 1.1 µM is reported as 100%. With `Clc1ccc(-n2ccnc2-c2c(-c3cc(Cl)ccc3Cl)nc3ccccn23)cc1` [Compound 506, 3-(1-(4-Chlorophenyl)-1H-imidazol-2-yl)-2-(2,5-dichlorophenyl)imidazo[1,2-a]pyridine] the activation at 1.1 µM was 99.4%. `Clc1ccc(-n2nnnc2-c2c(-c3cc(Cl)ccc3Cl)nc3occn23)cc1` [Compound 551, 5-(1-(4-Chlorophenyl)-1H-tetrazol-5-yl)-6-(2,5-dichlorophenyl)imidazo[2,1-b]oxazole] showed an activation at 1.1 µM of 95.7%. `Clc1ccc(-n2ccnc2-c2c(-c3cc(Cl)ccc3Cl)nc3n2CCCC3)cc1` [Compound 560, 3-(1-(4-Chlorophenyl)-1H-imidazol-2-yl)-2-(2,5-dichlorophenyl)-5,6,7,8-tetrahydroimidazo[1,2-a]pyridine] gave an activation at 1.1 µM of 100%. Work on `Fc1ccc(-c2nn3ccccc3c2-c2nncn2-c2ccc(Cl)cc2)cc1` [Compound 524, 3-(4-(4-Chlorophenyl)-4H-1,2,4-triazol-3-yl)-2-(4-fluorophenyl)pyrazolo[1,5-a]pyridine] yielded an activation at 1.1 µM of 99.1%. `Cn1ncc2c(-n3cnnc3-c3c(-c4cc(Cl)ccc4Cl)nc4ccccn34)cccc21` [Compound 545, 4-(3-(2-(2,5-Dichlorophenyl)imidazo[1,2-a]pyridin-3-yl)-4H-1,2,4-triazol-4-yl)-1-methyl-1H-indazole] showed an activation at 1.1 µM of 90.9%. `O=c1[nH]nc(-c2c(-c3cc(Cl)ccc3Cl)nc3ccccn23)n1-c1ccc(Cl)cc1` [Compound 525, 4-(4-Chlorophenyl)-3-(2-(2,5-dichlorophenyl)imidazo[1,2-a]pyridin-3-yl)-1H-1,2,4-triazol-5(4H)-one] was tested, and the activation at 1.1 µM was 83.3%. With `Clc1ccc(-n2ccnc2-c2c(-c3ccccc3Cl)nc3ccccn23)cc1` [Compound 557, 2-(2-Chlorophenyl)-3-(1-(4-chlorophenyl)-1H-imidazol-2-yl)imidazo[1,2-a]pyridine] the activation at 1.1 µM was 99.7%. Work on `Clc1ccc(-n2nnnc2-c2c(-c3cc(Cl)ccc3Cl)nc3cnccn23)cc1` [Compound 556, 3-(1-(4-Chlorophenyl)-1H-tetrazol-5-yl)-2-(2,5-dichlorophenyl)imidazo[1,2-a]pyrazine] yielded an activation at 1.1 µM of 88.4%. `Clc1ccc(Cl)c(-c2nc3ccccn3c2-c2nncn2-c2ccc3ncccc3c2)c1` [Compound 541, 6-(3-(2-(2,5-Dichlorophenyl)imidazo[1,2-a]pyridin-3-yl)-4H-1,2,4-triazol-4-yl)quinoline] showed an activation at 1.1 µM of 93.9%. `Clc1ccc(Cl)c(-c2nc3ccccn3c2-c2nncn2-c2ccc(-c3ccccc3)cc2)c1` [Compound 531, 3-(4-([1,1′-Biphenyl]-4-yl)-4H-1,2,4-triazol-3-yl)-2-(2,5-dichlorophenyl)imidazo[1,2-a]pyridine] was tested, and the activation at 1.1 µM was 88.8%. `Clc1ccc(-n2nnnc2-c2c(-c3cc(Cl)ccc3Cl)nc3ccccn23)cc1` [Compound 552, 3-(1-(4-Chlorophenyl)-1H-tetrazol-5-yl)-2-(2,5-dichlorophenyl)imidazo[1,2-a]pyridine] gave an activation at 1.1 µM of 100%. Work on `Clc1ccc(-n2ncnc2-c2c(-c3cc(Cl)ccc3Cl)nc3ccccn23)cc1` [Compound 554, 3-(1-(4-Chlorophenyl)-1H-1,2,4-triazol-5-yl)-2-(2,5-dichlorophenyl)imidazo[1,2-a]pyridine] yielded an activation at 1.1 µM of 99.9%. With `Clc1cccc(-c2nc3ccccn3c2-c2nncn2-c2ccc3cn[nH]c3c2)c1` [Compound 568, 6-(3-(2-(3-Chlorophenyl)imidazo[1,2-a]pyridin-3-yl)-4H-1,2,4-triazol-4-yl)-1H-indazole] the activation at 1.1 µM was 96%.
